Data reported in US20100160356A1, “NOVEL CYCLOBUTYL COMPOUNDS AS KINASE INHIBITORS” (priority 2006, published 2010).

Columns and labels:
TGFβR1 = biological target: T1, TGFβR1 (Homo sapiens, UniProt P36897); assay: Inhibition of TGFβR1 (flashplate assay); format: biochemical; settings: flashplate method
T1 sequence (P36897 34-503): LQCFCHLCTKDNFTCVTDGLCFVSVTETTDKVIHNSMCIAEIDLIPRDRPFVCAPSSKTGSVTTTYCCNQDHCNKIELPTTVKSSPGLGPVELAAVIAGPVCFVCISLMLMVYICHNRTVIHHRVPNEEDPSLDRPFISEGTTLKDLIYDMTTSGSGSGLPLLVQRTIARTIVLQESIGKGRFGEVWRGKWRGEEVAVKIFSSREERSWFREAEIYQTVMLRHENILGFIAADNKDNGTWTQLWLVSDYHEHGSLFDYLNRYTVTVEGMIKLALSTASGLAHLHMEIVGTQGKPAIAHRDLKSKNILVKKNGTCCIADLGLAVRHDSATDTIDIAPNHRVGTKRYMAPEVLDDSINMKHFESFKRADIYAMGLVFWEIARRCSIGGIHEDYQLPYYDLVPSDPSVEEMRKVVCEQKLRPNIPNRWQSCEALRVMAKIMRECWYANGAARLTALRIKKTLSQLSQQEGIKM
Method: The test is carried out as described in Example B1b for IGF1R. A biotinylated is added to the TGFβR1 kinase.
The kinase assay is carried out as a 384-well flashplate assay.
The components of the kinase reaction are pipetted into the assay plate. The TGFβR1 kinase is incubated for 45 min with radioactively labelled ^33P-ATP in the presence and absence of test substances together with biotinylated substrate in a total volume of 35 μl. The reaction is terminated using 25 μl of 200 mM EDTA solution, removed by suction after 30 min at room temperature, and the wells are washed with three times with 100 μl of 0.9% NaCl solution each time. The radioactivity is measured using a Topcount scintillation counter (PerkinElmer, USA). IC50 values are calculated using the RS1 computer program.

[1] = biological target: T2, FAK (focal adhesion kinase) (Homo sapiens, UniProt Q05397); assay: Inhibition of FAK (ELISA assay), FAK phosphorylation in cells; format: cell-based; settings: human cells with FAK amplification
T2 construct: endogenous in cells; host or cells: Calu-6 or HT-29
Method: Activated FAK promotes the invasive growth of tumour cells and inhibits anoikis.
The amount of phosphorylated FAK is determined by a specific capture ELISA or an analogous LUMINEX assay. FAK from cell lysates is bound to a 96-well ELISA plate or LUMINEX beads by means of a specific antibody (“capturing”), and the tyrosine phosphorylation is detected using a biotin-labelled anti-phosphotyrosine antibody and a streptavidin-peroxidase conjugate by a chemiluminescence method or by means of a fluorescence-labelled anti-phosphotyrosine antibody.
For determination of the activity of kinase inhibitors, cells are pretreated with increasing concentrations of these compounds for 45 min, and the FAK phosphorylation is then determined. As internal control, a concentration series of a reference inhibitor is measured.

SGK1 = biological target: T3, SGK1 (Homo sapiens, UniProt O00141); assay: Inhibition of SGK1 (flashplate assay); format: biochemical; settings: flashplate method
T3 sequence (O00141 1-431): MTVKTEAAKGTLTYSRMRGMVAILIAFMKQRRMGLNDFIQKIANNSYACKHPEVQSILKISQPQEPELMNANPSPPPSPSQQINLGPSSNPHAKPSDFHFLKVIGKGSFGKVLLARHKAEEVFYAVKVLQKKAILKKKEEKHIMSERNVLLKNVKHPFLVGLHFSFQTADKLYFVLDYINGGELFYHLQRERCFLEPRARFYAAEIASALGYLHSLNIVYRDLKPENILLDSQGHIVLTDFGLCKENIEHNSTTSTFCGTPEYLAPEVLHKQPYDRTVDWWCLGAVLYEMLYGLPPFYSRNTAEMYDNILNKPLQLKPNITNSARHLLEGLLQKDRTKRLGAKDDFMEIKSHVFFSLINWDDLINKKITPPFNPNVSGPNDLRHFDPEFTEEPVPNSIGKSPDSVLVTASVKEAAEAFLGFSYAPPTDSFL
Method: (§1) The test plates used are 384-well flashplate microtitre plates from Perkin Elmer (USA). The components of the kinase reaction are pipetted into the assay plate. The SGK1 kinase is incubated for 3 hr. with radioactively labelled ^33P-ATP in the presence and absence of test substances in a total volume of 100 μl at room temperature together with biotinylated poly(Glu, Tyr)4:1. The reaction is terminated using 25 μl of a 200 mM EDTA solution. After incubation for a further 30 min at room temperature, the supernatants are removed by suction, and the wells are washed three times with 100 μl of 0.9% NaCl solution each time. The radioactivity is measured using a Topcount scintillation counter (PerkinElmer, USA). IC50 values are calculated using the RS1 computer program.

TIE2 = TIE2 (Homo sapiens, UniProt Q02763); assay: Inhibition of TIE2 (flashplate assay); format: biochemical; settings: flashplate method
Method: B4: inhibition of T1E2 (Flashplate Assay)
as §1, with “TIE2” for “SGK1”

IGF1 receptor (IGF1R) = biological target: T4, IGF1 receptor (IGF1R) (Homo sapiens, UniProt P08069); assay: Inhibition of IGF1R (ELISA assay), IGF1-stimulated autophosphorylation in cells; format: cell-based; settings: human tumour cells stimulated with IGF1, read-out: IC50 IGF (ELISA)
T4 construct: endogenous in cells; host or cells: MCF-7 or Calu-6
Method: The stimulation induces an autophosphorylation of tyrosine residues in the cytoplasmatic IGF1R domain, which triggers signal transduction cascades, which result in inhibition of apoptosis and proliferation of the cells.
The amount of phosphorylated IGF1R is determined by a receptor-specific capture ELISA or an analogous LUMINEX assay. The IGF1R from cell lysates is bound to a 96-well ELISA plate or LUMINEX beads by means of a specific antibody (“capturing”), and the tyrosine phosphorylation is detected using a biotin-labelled anti-phosphotyrosine antibody and a streptavidin-peroxidase conjugate by a chemiluminescence method or by means of a fluorescence-labelled anti-phosphotyrosine antibody.
For determination of the activity of kinase inhibitors, cells are pretreated with increasing concentrations of these compounds for 45 min and subsequently stimulated using IGF1 for 5 min. As internal control, the biological activity of the ligand IGF1 is checked, and a concentration series of an IGF1R reference inhibitor is measured.

VEGF-2 = VEGF-2 (Homo sapiens, UniProt P35968); assay: Inhibition of VEGF-2 (flashplate assay); format: biochemical; settings: flashplate method
Method: as §1, with “VEGF-2” for “SGK1”

PDGFRβ = PDGFRβ (Homo sapiens, UniProt P09619); assay: Inhibition of PDGFRβ (flashplate assay); format: biochemical; settings: flashplate method
Method: as §1, with “are 96-well” for “are 384-well”, “The PDGFRβ” for “The SGK1”, “temperature (here autophosphorylation of the kinase).” for “temperature together with biotinylated poly(Glu, Tyr)4:1.”, “using 150” for “using 25”, “a 60” for “a 200”, “with 200” for “with 100”

IGF1R = IGF1R (Homo sapiens, UniProt P08069); assay: Inhibition of IGF1R (flashplate assay); format: biochemical; settings: flashplate method
Method: as §1, with “are 96-well” for “are 384-well”, “The IGF1R” for “The SGK1”, “for 1” for “for 3”

insulin receptor (InsR) = biological target: T5, insulin receptor (InsR) (Homo sapiens, UniProt P06213); assay: Inhibition of InsR (ELISA assay), insulin-stimulated autophosphorylation in cells; format: cell-based; settings: human cells stimulated with insulin
T5 construct: endogenous in cells; host or cells: HepG2
Method: Cultivated human cells which express the insulin receptor (InsR) (for example HepG2) are stimulated using human insulin, the natural ligand of InsR. The stimulation induces autophosphorylation of tyrosine residues in the cytoplasmatic InsR domain, which triggers signal transduction cascades, which initiate various biological reactions of the cells. The amount of phosphorylated InsR is determined by a receptor-specific capture ELISA or an analogous LUMINEX assay. The InsR from cell lysates is bound to a 96-well ELISA plate or LUMINEX beads by means of a specific antibody (“capturing”), and the tyrosine phosphorylation is detected using a biotin-labelled anti-phosphotyrosine antibody and a streptavidin-peroxidase conjugate by a chemiluminescence method or by means of a fluorescence-labelled anti-phosphotyrosine antibody. For determination of the activity of kinase inhibitors, cells are pretreated with increasing concentrations of these compounds for 45 min and subsequently stimulated using insulin for 5 min. As internal control, the biological activity of the ligand insulin is checked, and a concentration series of a reference inhibitor is measured.

CHK = assay: Inhibition of CHK (flashplate method); format: biochemical
Met = Met (Homo sapiens, UniProt P08581); assay: Inhibition of Met (flashplate method); format: biochemical

Sequence of VEGF-2 (P35968 20-1356): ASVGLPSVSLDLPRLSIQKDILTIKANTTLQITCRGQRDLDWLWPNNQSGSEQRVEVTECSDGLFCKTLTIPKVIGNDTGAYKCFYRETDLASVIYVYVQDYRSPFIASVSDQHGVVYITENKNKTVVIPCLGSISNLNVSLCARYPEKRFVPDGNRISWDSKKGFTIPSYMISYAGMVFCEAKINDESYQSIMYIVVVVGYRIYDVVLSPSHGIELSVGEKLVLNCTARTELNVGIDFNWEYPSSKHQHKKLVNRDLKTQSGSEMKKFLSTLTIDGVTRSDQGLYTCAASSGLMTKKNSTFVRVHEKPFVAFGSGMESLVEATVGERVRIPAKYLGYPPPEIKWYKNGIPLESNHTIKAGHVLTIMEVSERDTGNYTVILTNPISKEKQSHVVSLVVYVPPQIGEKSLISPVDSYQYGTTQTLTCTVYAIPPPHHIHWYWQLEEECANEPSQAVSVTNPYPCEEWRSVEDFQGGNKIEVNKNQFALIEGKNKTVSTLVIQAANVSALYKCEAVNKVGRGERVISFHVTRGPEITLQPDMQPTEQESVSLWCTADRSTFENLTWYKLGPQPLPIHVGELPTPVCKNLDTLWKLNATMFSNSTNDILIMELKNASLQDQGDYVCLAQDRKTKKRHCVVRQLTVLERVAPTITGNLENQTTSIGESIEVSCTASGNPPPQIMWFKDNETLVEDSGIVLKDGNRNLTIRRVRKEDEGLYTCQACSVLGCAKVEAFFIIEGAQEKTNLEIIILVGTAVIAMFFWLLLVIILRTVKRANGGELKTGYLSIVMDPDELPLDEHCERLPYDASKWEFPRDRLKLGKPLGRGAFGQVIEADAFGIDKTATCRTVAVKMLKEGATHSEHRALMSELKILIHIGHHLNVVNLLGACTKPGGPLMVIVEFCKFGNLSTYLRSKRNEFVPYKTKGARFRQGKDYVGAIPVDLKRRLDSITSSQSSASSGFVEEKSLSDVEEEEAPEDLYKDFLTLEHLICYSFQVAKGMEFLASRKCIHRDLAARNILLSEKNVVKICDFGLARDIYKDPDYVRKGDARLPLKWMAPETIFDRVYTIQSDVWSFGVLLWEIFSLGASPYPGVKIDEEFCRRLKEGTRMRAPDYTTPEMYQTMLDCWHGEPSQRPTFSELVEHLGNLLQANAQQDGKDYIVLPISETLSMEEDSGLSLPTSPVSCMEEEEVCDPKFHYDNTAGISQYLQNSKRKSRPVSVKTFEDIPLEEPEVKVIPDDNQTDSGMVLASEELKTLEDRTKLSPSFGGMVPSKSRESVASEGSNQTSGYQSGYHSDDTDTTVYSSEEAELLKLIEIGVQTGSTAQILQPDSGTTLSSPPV
Sequence of IGF1R (P08069 31-1367, species assumed): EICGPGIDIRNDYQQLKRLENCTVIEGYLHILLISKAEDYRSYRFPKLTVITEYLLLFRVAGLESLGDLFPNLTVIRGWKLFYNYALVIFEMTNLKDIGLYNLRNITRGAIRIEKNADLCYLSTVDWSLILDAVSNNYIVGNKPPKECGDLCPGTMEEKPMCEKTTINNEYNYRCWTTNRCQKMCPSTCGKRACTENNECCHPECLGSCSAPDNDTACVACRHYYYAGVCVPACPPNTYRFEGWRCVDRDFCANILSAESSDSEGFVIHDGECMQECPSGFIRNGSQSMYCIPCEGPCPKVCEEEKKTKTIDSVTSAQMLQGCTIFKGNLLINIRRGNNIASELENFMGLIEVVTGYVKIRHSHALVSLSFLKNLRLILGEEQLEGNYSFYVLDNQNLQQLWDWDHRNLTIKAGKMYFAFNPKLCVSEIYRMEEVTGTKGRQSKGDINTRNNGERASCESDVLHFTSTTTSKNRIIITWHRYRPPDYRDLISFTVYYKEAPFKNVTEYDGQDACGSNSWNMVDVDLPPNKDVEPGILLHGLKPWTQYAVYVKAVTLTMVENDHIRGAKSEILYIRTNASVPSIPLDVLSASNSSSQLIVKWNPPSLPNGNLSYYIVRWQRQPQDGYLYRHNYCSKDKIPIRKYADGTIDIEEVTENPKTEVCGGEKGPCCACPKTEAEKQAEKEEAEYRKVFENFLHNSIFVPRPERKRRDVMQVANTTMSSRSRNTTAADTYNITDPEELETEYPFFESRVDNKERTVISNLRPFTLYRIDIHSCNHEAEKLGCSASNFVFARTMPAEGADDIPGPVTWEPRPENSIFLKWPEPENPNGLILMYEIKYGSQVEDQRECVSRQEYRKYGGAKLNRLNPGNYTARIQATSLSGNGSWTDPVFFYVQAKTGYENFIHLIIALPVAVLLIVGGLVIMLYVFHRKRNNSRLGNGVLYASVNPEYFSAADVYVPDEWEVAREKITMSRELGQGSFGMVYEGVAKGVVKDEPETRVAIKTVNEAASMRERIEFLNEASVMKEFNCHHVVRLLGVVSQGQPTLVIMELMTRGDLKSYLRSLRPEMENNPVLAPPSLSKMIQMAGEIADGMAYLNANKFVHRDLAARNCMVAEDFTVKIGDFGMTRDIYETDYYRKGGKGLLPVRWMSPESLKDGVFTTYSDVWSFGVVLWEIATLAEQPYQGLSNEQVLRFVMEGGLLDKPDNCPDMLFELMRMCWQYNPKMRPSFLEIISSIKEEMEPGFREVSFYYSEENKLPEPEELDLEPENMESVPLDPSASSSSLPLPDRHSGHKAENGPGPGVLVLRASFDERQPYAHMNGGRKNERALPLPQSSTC
T4 sequence (P08069 31-1367): as the sequence (P08069 31-1367, species assumed) above
Sequence of PDGFRβ (P09619 33-1106, species assumed): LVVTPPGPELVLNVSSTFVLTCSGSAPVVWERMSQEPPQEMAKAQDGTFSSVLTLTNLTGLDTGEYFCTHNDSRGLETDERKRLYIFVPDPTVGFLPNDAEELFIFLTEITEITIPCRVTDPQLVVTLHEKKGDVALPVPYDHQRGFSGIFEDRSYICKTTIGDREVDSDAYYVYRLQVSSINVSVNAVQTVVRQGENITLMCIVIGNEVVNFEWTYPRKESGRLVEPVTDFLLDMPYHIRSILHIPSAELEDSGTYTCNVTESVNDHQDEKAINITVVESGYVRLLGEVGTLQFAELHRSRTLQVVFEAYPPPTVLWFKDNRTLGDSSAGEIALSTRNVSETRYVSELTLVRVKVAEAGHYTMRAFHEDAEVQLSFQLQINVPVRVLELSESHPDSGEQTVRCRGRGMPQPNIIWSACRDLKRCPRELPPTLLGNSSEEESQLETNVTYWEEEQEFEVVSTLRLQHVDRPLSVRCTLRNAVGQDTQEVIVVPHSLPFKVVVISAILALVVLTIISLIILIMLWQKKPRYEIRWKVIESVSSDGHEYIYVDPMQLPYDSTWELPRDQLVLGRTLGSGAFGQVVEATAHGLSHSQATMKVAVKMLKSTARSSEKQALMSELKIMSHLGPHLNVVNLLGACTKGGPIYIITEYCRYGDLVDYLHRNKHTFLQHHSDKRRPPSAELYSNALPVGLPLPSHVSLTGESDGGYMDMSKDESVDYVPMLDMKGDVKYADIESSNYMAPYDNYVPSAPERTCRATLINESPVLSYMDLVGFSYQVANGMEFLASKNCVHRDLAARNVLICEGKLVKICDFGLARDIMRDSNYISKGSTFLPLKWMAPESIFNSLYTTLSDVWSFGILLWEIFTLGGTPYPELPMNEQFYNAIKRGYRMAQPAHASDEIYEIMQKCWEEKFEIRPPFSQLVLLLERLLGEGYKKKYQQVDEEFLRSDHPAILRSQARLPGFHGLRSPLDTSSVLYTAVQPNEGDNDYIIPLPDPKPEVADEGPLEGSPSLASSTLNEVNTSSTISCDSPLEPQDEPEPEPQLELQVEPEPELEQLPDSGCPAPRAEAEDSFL
T2 sequence (Q05397 whole entry): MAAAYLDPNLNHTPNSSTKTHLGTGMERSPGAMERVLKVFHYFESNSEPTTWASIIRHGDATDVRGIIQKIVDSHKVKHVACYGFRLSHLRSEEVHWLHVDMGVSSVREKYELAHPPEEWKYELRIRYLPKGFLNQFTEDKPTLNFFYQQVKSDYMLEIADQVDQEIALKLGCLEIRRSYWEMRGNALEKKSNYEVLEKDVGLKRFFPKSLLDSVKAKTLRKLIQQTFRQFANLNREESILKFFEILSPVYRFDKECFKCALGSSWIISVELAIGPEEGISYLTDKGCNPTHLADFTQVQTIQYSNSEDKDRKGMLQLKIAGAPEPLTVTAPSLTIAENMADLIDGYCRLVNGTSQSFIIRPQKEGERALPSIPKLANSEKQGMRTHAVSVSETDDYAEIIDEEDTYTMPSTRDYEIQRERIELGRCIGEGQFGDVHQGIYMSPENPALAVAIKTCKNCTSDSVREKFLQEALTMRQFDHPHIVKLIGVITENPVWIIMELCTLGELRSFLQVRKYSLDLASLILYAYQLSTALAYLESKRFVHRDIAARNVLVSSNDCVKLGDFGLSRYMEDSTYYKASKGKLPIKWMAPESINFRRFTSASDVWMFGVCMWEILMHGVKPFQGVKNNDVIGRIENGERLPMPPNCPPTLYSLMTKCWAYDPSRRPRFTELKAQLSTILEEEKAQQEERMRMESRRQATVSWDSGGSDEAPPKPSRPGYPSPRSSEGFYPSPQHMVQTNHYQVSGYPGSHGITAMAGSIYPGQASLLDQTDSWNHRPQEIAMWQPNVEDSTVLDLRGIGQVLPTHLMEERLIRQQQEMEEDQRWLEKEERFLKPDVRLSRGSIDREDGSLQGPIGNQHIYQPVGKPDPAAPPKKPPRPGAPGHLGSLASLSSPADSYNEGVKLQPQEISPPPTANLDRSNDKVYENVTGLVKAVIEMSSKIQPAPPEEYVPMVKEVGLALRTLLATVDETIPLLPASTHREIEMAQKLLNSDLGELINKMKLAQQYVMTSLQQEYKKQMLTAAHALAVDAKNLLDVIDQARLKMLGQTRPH

SMILES | IC50 (TGFβR1) | IC50 [1] | IC50 (SGK1) | IC50 (TIE2) | IC50 (IGF1 receptor (IGF1R)) | IC50 (VEGF-2) | IC50 (PDGFRβ) | IC50 (IGF1R) | melting point | IC50 (insulin receptor (InsR)) | IC50 (CHK) | IC50 (Met)
NCC1CC(n2cc(C#CCO)c3c(N)ncnc32)C1 (stereo not shown) [Compound 47] | – | – | 2550 nM | – | – | – | – | – | – | – | – | –
NCC1CC(n2cc(-c3cccc(NCc4ccccc4)c3)c3c(N)ncnc32)C1 (stereo not shown) [Compound 25] | 3700 nM | – | 3600 nM | 1500 nM | 3000 nM | 390 nM | 1200 nM | 820 nM | 204 to 206 °C | – | – | –
Nc1ncnc2c1c(-c1ccc3occc3c1)cn2C1CC(CNC(=O)C(F)(F)F)C1 (stereo not shown) [Compound 64] | 330 nM | 3600 nM | 4400 nM | 2400 nM | – | 1060 nM | 2450 nM | – | 92 to 93.5 °C | – | – | –
C[Si](C)(C)COc1cccc(-c2cn(C3CC(CN)C3)c3ncnc(N)c23)c1 (stereo not shown) [Compound 9] | – | 14000 nM | – | – | 570 nM | – | – | 130 nM | – | 5500 nM | – | –
NCC1CC(n2cc(-c3ccco3)c3c(N)ncnc32)C1 (stereo not shown) [Compound 38] | – | 18000 nM | 2600 nM | – | 17000 nM | 2300 nM | – | – | – | – | 8800 nM | –
Cc1csc(-c2cn(C3CC(CN)C3)c3ncnc(N)c23)c1 (stereo not shown) [Compound 70] | 1400 nM | 7100 nM | 4450 nM | 2600 nM | 8500 nM | – | 2500 nM | – | – | – | – | –
C[Si](C)(COc1cccc(-c2cn(C3CC(CN)C3)c3ncnc(N)c23)c1)c1ccccc1 (stereo not shown) [Compound 8] | – | 16000 nM | – | – | 810 nM | – | – | 320 nM | – | 9500 nM | – | 1100 nM
NCC1CC(n2cc(-c3ccsc3)c3c(N)ncnc32)C1 (stereo not shown) [Compound 40] | 2200 nM | 2600 nM | 8400 nM | 9300 nM | 18000 nM | 1800 nM | 750 nM | – | 109 to 111 °C | – | – | –

Further compounds by falling IC50 (SGK1), results first:

IC50 (TGFβR1) | IC50 [1] | IC50 (SGK1) | IC50 (TIE2) | IC50 (IGF1 receptor (IGF1R)) | IC50 (VEGF-2) | IC50 (PDGFRβ) | IC50 (IGF1R) | melting point | IC50 (insulin receptor (InsR)) | IC50 (CHK) | IC50 (Met) | SMILES
8500 nM | 15000 nM | 2500 nM | – | – | – | – | – | – | – | – | – | NCC1CC(n2cc(-c3ccoc3)c3c(N)ncnc32)C1 (stereo not shown) [Compound 39]
810 nM | 1210 nM | 1950 nM | – | 14000 nM | – | – | 7600 nM | – | – | – | – | NCC1CC(n2cc(-c3cccc(N)c3)c3c(N)ncnc32)C1 (stereo not shown) [Compound 23]
2700 nM | 3800 nM | 1600 nM | 4800 nM | 6200 nM | 1200 nM | – | 5600 nM | – | – | – | – | NCC1CC(n2cc(-c3cccs3)c3c(N)ncnc32)C1 (stereo not shown) [Compound 41]
– | – | 250 nM | 2600 nM | 7500 nM | 715 nM | 1100 nM | – | – | – | – | – | NCC1CC(n2cc(I)c3c(N)ncnc32)C1 (stereo not shown) [Compound 52]
